Legend:
[1] = tested on: cyclic AMP-dependent protein kinase; assay: Activation of bovine brain cyclic AMP-dependent protein kinase; assay type: biochemical; conditions: pH 6, relative to cyclic AMP
Procedure: Cyclic AMP-dependent protein kinase was purified to the stage of DEAE cellulose chromatography from bovine brain using the procedure of Miyamoto et al., J. Biol. Chem. 244, 6395 (1969). Protein kinase activity was assayed by measuring the incorporation of ^32 P-phosphate into histone from γ-^32 P labeled ATP. The incubation mixture contained (amounts in μmoles): sodium glycerol phosphate buffer, pH 6, 10; γ-^32 P-ATP, ~2 × 10^6 cpm, 0.001; magnesium acetate, 2; sodium fluoride, 2; EDTA, 0.06; histone, 40 - 400 μg; cAMP, cGMP or analog as indicated; purified protein kinase, 5 - 25 μg in a final volume of 0.2 ml. Activation constants (Ka) were determined according to the procedure of Muneyama et al., supra. The Ka values relative to cyclic AMP (Ka') are reported in Table IV and compared to Ka' for compound 6.

L-929 cells = assay: Interferon potentiation in vitro with L-929 cells; assay type: cell-based
[2] = tested on: cyclic AMP phosphodiesterase; assay: Resistance to phosphodiesterase (PDE) degradation; assay type: biochemical; conditions: rabbit kidney PDE, pH 7.5, 37°C
Herpes virus Type 2 = assay: Antiviral activity, virus rating (VR) method, Herpes Type 2; assay type: cell-based; conditions: virus rating (VR) method of Sidwell et al.
Text: (§1) Tested according to the virus rating (VR) method of Sidwell et al., Proc. Soc.

adenyl cyclase = assay: Adenyl cyclase inhibition (guinea pig lung particulate fraction); assay type: biochemical; conditions: guinea pig lung particulate enzyme fraction, 1.2 mM ATP, pH 7.8, 15 min at 37°; read-out: I50 (concentration required for 50% enzyme inhibition)
Procedure: Lunt alveolar tissue was obtained from normal guinea pigs. The tissue was minced and a Duall tissue grinder was used to prepare a 20% homogenate in chilled buffer containing 1 mM MgCl 2 and 2 mM glycylglycine, pH 7.5 (F. Murad et al., J. Biol. Chem. 237: 1233, 1962). The homogenate was strained through four layers of gauze and centrifuged at 1000xg for 15 min at 4°. The pellet was resuspended in the original volume of buffer and recentrifuged. The pellet was again resuspended in buffer and 0.5 - 1.0 ml aliquots were sealed in ampoules and stored under liquid nitrogen for future assay of adenylate cyclase activity. […] Protein was determined by the method of Lowry et al., J. Biol. Chem. 193: 265, 1951, with crystalline bovine serum albumin as standard.
Adenylate cyclase activity was assayed in duplicate by a modification of previously published methods (G. Krishna et al., J. Pharmacol. Exp. Therap. 163: 379, 1968; G. S. Levey and S. E. Epstein, Circ. Res. 24: 151, 1969). The total assay volume was 0.59 ml and contained 1.8 mM MgCl2, 0.8 mM glycylglycine, 32 mM Tris (pH 7.8), 1.2 mM ATP, 3-5×10^6 cpm [α-^32 P] ATP, and particulate enzyme fraction (100-150 μg. lung protein). Concentrated solutions of compounds to be tested were prepared fresh daily by dissolution in water, ethanol, or dimethyl sulfoxide; 5-10 μl of the solution was added to the incubation mixture to give the desired final concentration. Control assays (without compound) contained solvent alone.
The incubation mixture was reacted for 15 min at 37° in a shaker, and then boiled for 3 min to inactivate the cyclase. One hundred μl of a solution containing 4 μmoles ATP, 1.25 μmoles cyclic AMP, and 0.15μCi [^3 H] cyclic AMP was added to the reaction mixture. […] After centrifugation, 1 ml of supernatant containing [^32 P] cyclic AMP and [^3 H] cyclic AMP was mixed with 15 ml of scintillator (100 g naphthalene, 14 g PPO, and 0.1 g dimethyl POPOP per 2 l dioxane) and counted. […]

Herpes virus Type 1 = assay: Antiviral activity, virus rating (VR) method, Herpes Type 1; assay type: cell-based; conditions: virus rating (VR) method of Sidwell et al.
Text: as §1

Rhino viruses = assay: Antiviral activity, virus rating (VR) method, Rhino viruses; assay type: cell-based; conditions: virus rating (VR) method of Sidwell et al.
Text: as §1

[3] = tested on: 6-methylthio-purine riboside-resistant Ehrlich carcinomas; assay: Growth inhibition of surgically implanted Ehrlich carcinomas in mice; assay type: in vivo; conditions: intraperitoneally, 83 μmoles/Kg

Compound	Ka' (= Ka, cyclic AMP/Ka analog) [1]	interferon potentiation (L-929 cells)	rate of analog hydrolysis relative to cyclic AMP (α) [2]	activity against Herpes virus Type 2 (Herpes virus Type 2)	IC50 (adenyl cyclase) [mM]	activity against Herpes virus Type 1 (Herpes virus Type 1)	activity against Rhino viruses (Rhino viruses)	inhibition of growth of Ehrlich carcinomas [3]
O=P1(O)OC[C@H]2O[C@@H](n3cnc4c(=S)[nH]cnc43)[C@H](O)[C@@H]2O1 [Compound 6, 9-β-D-Ribofuranosylpurin-6-thione 3', 5'-cyclic phosphate, reference compound]	0.56	did not	1.06					
CSc1ncnc2c1ncn2[C@@H]1O[C@@H]2COP(=O)(O)O[C@H]2[C@H]1O [Compound 7a, 6-Methylthio-9-β-D-ribofuranosylpurine 3', 5'-cyclic phosphate]	1.45	marked interferon potentiation	0.41	exhibited activity	0.34	exhibited activity		
CCSc1ncnc2c1ncn2[C@@H]1O[C@@H]2COP(=O)(O)O[C@H]2[C@H]1O [Compound 7b, 6-Ethylthio-9-β-D-ribofuranosylpurine 3', 5'-cyclic phosphate]	2.0	marked interferon potentiation	0.57		1	exhibited activity	exhibited activity	
O=P1(O)OC[C@H]2O[C@@H](n3cnc4c(SCc5ccccc5)ncnc43)[C@H](O)[C@@H]2O1 [Compound 7c, 6-Benzylthio-9-β-D-ribofuranosylpurine 3', 5'-cyclic phosphate]	1.25		0.54	exhibited activity	7			inhibited growth
